Legend:
DLBCL cells = experiment: Killing of DLBCL cell lines (cell viability); format: cell-based
Description: 30,000 cells were plated in 100 μL media per well of a 96 well plate and treated with drug for indicated times and doses. A resazurin-based indicator of cell health (PrestoBlue, ThermoFisher #P50200) was added for 1.5 hours after which the fluorescence ratio at 560/590 nm was recorded. The background fluorescence was subtracted and the signal was normalized to DMSO-treated cells. EC50 measurements on cell lines were done with 4 biological repeats by separate cell passages maintained by 3 independent investigators. Fit of dose-response curves to data and statistical analysis was performed using drc package in R using the four-parameter log-logistic function.
It was noted that neither Bl3812 nor JQ1 produced complete loss of cell viability (FIG. 28, Panel A) leaving a resistant population of cells as has been previously reported.

[1] = molecular target: T1, bromodomain 1 of BRD4 and BTB domain of BCL6 (Homo sapiens, UniProt O60885+P41182, C67R/C84N/C8Q); experiment: TR-FRET assay of ternary complex formation; format: binding; conditions: 1 hr at room temperature, 520 nm/490 nm ratio
T1 construct: contains amino acids 5-129 with three mutations, C8Q, C67R, C84N
Description: Reaction was incubated for 1 hr at room temperature, and subsequently the fluorescence at 520 nm and 490 nm was measured. The 520 nm/490 nm ratio is plotted respective to DMSO control. The two lower curves are performed by addition of Neg1 and Neg2 instead of JWZ-7-7. […] The structure of JWZ-7-7 is provided in FIG. 2 and the structures of Neg1 and Neg2 are provided below:
Each reaction contained 100 nM BRD4^BD1, 100 nM BCL6BTB-Avi-Biot, 20 nM Streptavidin-FITC (Thermo #SA1001), and 1:400 anti-6×His terbium antibody (PerkinElmer #61H12TLF) in 10 μL of buffer containing 20 mM HEPES, 150 mM NaCl, 0.1% BSA, 0.1% NP-40, and 1 mM TCEP in a 384-well plate. Protein was incubated with drug digitally dispensed (Tecan D300e) for 1 hour in the dark at room temperature before excitation at 337 nm and measurement of emission at 520 nm (FITC) and 490 nm (terbium) with a PHERAstar FS plate reader (BMG Labtech). The ratio of signal at 520 nm to 490 nm was calculated and normalized to DMSO-treated conditions, and plotted.

BCL6 and BRD4 = molecular target: T2, BCL6 and BRD4 (Homo sapiens, UniProt O60885+P41182); experiment: BCL6-BRD4 nanoBRET assay in HEK cells; format: cell-based; conditions: C- and N-terminally labeled BCL6 with N-terminally labeled BRD4, HEK cells
T2 construct: N-terminal fusion of HaloTag to full-length BCL6; N-terminal fusion of nanoLuc (nano-luciferase) to full-length BRD4 (Promega #N169A); host or cells: HEK293T
Description: The conditions and methods for nanoBRET, a well-recognized assay of in vivo target engagement, are described in PMID 26006698.
A 12-point dose-response curve with 3 technical replicates for each TCIP was carried out and corrected BRET ratios were calculated according to manufacturer assay protocol (Promega #TM439). Data was fit using the R package drc using the four-parameter log-logistic function.

[2] = test system: gene expression in KARPAS422 cells; experiment: RNA-seq of drug-treated KARPAS422 cells; format: cell-based, human
Description: 12. RNA Extraction, qPCR, and Sequencing Library Preparation Cells were plated at 1 M/mL and harvested in TRIsure (Bioline #38033). RNA was extracted using Direct-zol RNA MicroPrep columns (Zymo #R^2062) treated with DNAseI. cDNA was prepared for RT-qPCR using the SensiFAST cDNA preparation kit according to manufacturer instructions (Bioline #65054). 1 μL of cDNA was used per RT-qPCR reaction prepared with SYBR Lo-ROX (Bioline #94020). For sequencing library preparation, polyA-containing transcripts were enriched for (NEB #E7490S) and prepared into paired-end libraries (NEB #E7760S). Libraries were sequenced on an Illumina NovaSeq (Novogene). 13. Western Blots
(www.bioinformatics.babraham.ac.uk/projects/fastqc/) and trimmed from adapters using cutadapt (Martin, M., EMBnet.journal (2011) 17: 10) using parameters cutadapt—a […] -b (SEQ ID NO:01) […] (SEQ ID NO:02) -nextseq-trim=20-minimum-length 1. Transcripts were quantified using kallisto (Bray et al., Nature Biotechnology (2016) 34: 525-527) against the human Gencode v33 indexed transcriptome and annotations. […] 15. ChIP-Seq Experiment and Library Preparation
(§1) Because a high percentage of the TCIP1-treated cells contain fragmented DNA by TUNEL assay at 24 hours (FIG. 31, Panel E), many of the “reduced genes” could reflect DNA fragmentation as part of the apoptotic process and digestion to mononucleosomes. Among the group of genes whose expression was most reduced were MYC and its targets (FIGS. 33B, 36C). The top 100 most TCIP1-reduced genes were examined using ChIP-seq data of human transcription factors in blood cancer cell lines, and found the promoters of TCIP1-inhibited genes highly enriched for MYC binding in multiple datasets (FIG. 33, Panel C). This is significant since many DLBCLs are considered to be MYC-dependent.
Almost all differential genes were increasingly activated at 4 hours compared to negligible effects of the control molecules Neg1 and Neg2 (FIG. 35, Panel B).

[3] = test system: MYC, FOXO3, p21, BCL6, BRD4 protein levels in KARPAS422 and SUDHL5; experiment: Western blots of target proteins in DLBCL cells; format: cell-based, human
Description: Cells were plated at 1 M/mL and treated with drug at indicated timepoints and doses. 2 M Cells were harvested on ice in RIPA buffer (50 mM Tris-HCl pH 8, 150 mM NaCl, 1% NP-40, 0.1% DOC, 1% SDS, protease inhibitor cocktail (homemade), 1 mM DTT) and 1:200 benzonase (Sigma #E1014) was added and incubated for 20 minutes. After 10 minute centrifugation at 14,000 g and 4° C., the supernatant was collected and protein concentration was measured by Bradford.
as §1
Signaling via NF-kB is known to be repressed by BCL6.

| Structure (SMILES) | Cell killing after short exposure and washout (DLBCL cells; 10 nM, 4 hours exposure followed by washout) | Ternary complex formation (TR-FRET) [1] | nanoBRET signal of proximity (BCL6 and BRD4) | BCL6 repressed genes activated ([2]; RNA-seq) [%] | Concentration that regulates genes critical for DLBCL ([3]; Karpas 422, 24 hours, Western blot) [NM] | EC50 (DLBCL cells; DLBCL lines including chemotherapy-resistant, TP53-mutant lines, 72 hrs) [nM] | Number of genes activated ([2]; 10 nM, 2 hours, KARPAS422) [genes] | Median change of activated genes ([2]; 10 nM, 20 hours, KARPAS422) [fold] | Number of genes increased in expression ([2]; 10 nM, 20 hours, KARPAS422) | Number of genes reduced in expression ([2]; 10 nM, 20 hours, KARPAS422) | Increase of CDKN1A (p21) expression ([2]; RNA-seq, 20 hours, KARPAS422) | Time to FOXO3 activation ([3]; 10 nM) | Effect on BRD4 protein levels ([3]; 20 hours, KARPAS422) | Concentration from which the long isoform of BCL6 protein is induced ([3]; DLBCL cell lines) [nM] | Concentration that activates FOXO3 ([3]; Western blot) [nM] | Concentration from which MYC protein levels are reduced ([3]; Western blot, DLBCL cells) | Time to reduction of MYC protein levels ([3]; after drug addition) [h] |
| --- | --- | --- | --- | --- | --- | --- | --- | --- | --- | --- | --- | --- | --- | --- | --- | --- | --- |
| CNC(=O)COc1cc2cc(Nc3nc(N4CCC(C(=O)NCCCCCCCNC(=O)C[C@@H]5N=C(c6ccc(Cl)cc6)c6c(sc(C)c6C)-n6c(C)nnc65)CC4)ncc3Cl)cc(OC)c2n(C)c1=O [JWZ-7-7, (S)-1-(5-chloro-4-((8-methoxy-1-methyl-3-(2-(methylamino)-2-oxoethoxy)-2-oxo-1,2-dihydroquinolin-6-yl)amino)pyrimidin-2-yl)-N-(7-(2-(4-(4-chlorophenyl)-2,3,9-trimethyl-6H-thieno[3,2-f][1,2,4]triazolo[4,3-a][1,4]diazepin-6-yl)acetamido)heptyl)piperidine-4-carboxamide] | robust killing | showed ternary complex formation | generated a specific signal of proximity | 60 | < 1 | – | – | – | – | – | – | – | – | – | – | – | – |
| CNC(=O)COc1cc2cc(Nc3nc(N4CCC(C(=O)NCCCCCCCNC(=O)C[C@@H]5N=C(c6ccc(Cl)cc6)c6c(sc(C)c6C)-n6c(C)nnc65)CC4)ncc3Cl)cc(OC)c2n(C)c1=O [TCIP1] | – | detected | – | – | – | 1.3 | 140 | 4 | 1,674 genes | 1,364 genes | about 64 fold | within two hours | did not change substantially | 0.5 to 1 | 0.5 | less than 1 nM | ≤ 2 |
